Results published in patent US20190225650A1, “PEPTIDOMIMETIC MACROCYCLES AND USE THEREOF IN REGULATING HIF1ALPHA” (AILERON THERAPEUTICS, INC., priority 2013, published 2019).
Bridge positions count the residues as written; N and C are the ends. Square brackets hold non-standard residues; d marks the D form. Peptide text beside a SMILES is read from it. R8 = C=CCCCCCC[C@@](C)(N)C(=O)O; S5 = C=CCCC[C@](C)(N)C(=O)O; Nle = CCCC[C@H](N)C(=O)O

How the values were obtained:
[1] = target: T1, flag-tagged HIF1α (AA 786-826) / His6-tagged p300 (AA 323-423) complex (Homo sapiens, UniProt Q09472); assay: HIF1α p300 displacement assay (TR FRET, +CHAPS); format: binding; settings: read-out: IC50 (nM) (HIF1α_p300 Displacement + CHAPS)
T1 construct: His6-tagged p300 (AA 323-423); made in house; host or cells: E. coli (pETDuet vector)
Method in brief: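 In this TR-FRET displacement format, peptides compete HIF1α C-terminal transactivation domain off p300-CH. They were preincubated 1 h at room temperature with 300 nM complex in HEPES pH 7.4/NaCl buffer with 7.5 mM CHAPS and 1 mM DTT. Anti-His-D2 (4 nM) and anti-Flag-K (0.5 μM) followed for 2 h, and a one-site fit of the fluorescence ratio gave IC50.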

HRE-bla ME-180 cells = assay: Reporter gene assay (HRE-bla ME-180 HIF reporter, GeneBLAzer); format: cell-based, human; settings: for EC50: 24 hour normoxia
Method in brief: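 A FRET β-lactamase readout of HIF transcription was used. After compound treatment in 0.3% DMSO/media under normoxic conditions, 20 μl of 6× LiveBLAzer-FRET B/G (CCF4-AM) substrate was added. Plates sat 3 hr at room temperature in the dark and were read at 409 Ex/460Em and 409Ex/530Em on a Synergy 2. Inhibition was compared against DMSO vehicle controls, with chetomin as positive control.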

Structure (SMILES)	IC50 [1] [nM]	18 h Avg % max inhibition at top conc (HIF Rptr-24 hrs normoxia) (μM) (HRE-bla ME-180 cells)	EC50 (HRE-bla ME-180 cells) [µM]
CCCC[C@H](NC(=O)[C@H](C)NC(=O)[C@@H](NC(=O)[C@@H](NC(=O)[C@H](CC(C)C)NC(=O)[C@]1(C)CCCC=CCCC[C@](C)(NC(=O)[C@H](CCC(=O)O)NC(=O)[C@H](CC(=O)O)NC(=O)[C@@H](NC(=O)[C@H](Cc2ccccc2)NC(C)=O)[C@@H](C)CC)C(=O)N[C@@H](C(C)C)C(=O)N[C@@H](CC(C)C)C(=O)N[C@@H](CCCC)C(=O)N1)C(C)C)[C@@H](C)CC)C(=O)N[C@@H](C)C(=O)N[C@@H](CC(C)C)C(N)=O [SP-122] (Ac-FIDE[S5]VL[Nle][S5]LVIA[Nle]AL-NH2; staple 5-9)	200 to 400	++ (≤10 but <25: ++)	> 30
CCCC[C@@H]1NC(=O)[C@H](CC(C)C)NC(=O)[C@H](C(C)C)NC(=O)[C@@](C)(NC(=O)[C@H](CCC(=O)O)NC(=O)[C@H](CC(=O)O)NC(=O)[C@@H](NC(=O)[C@H](Cc2ccccc2)NC(C)=O)[C@@H](C)CC)CCCC=CCCCC2(CCCC=CCCC[C@](C)(C(=O)N[C@@H](CCCC)C(=O)N[C@@H](C)C(=O)N[C@@H](CC(C)C)C(N)=O)NC(=O)[C@H]([C@@H](C)CC)NC(=O)[C@H](C(C)C)NC(=O)[C@H](CCCNC(=N)N)NC2=O)NC1=O (some centres unmarked) [SP-209]	> 700	++ (≤10 but <25: ++)	> 30
CCCC[C@@H]1NC(=O)[C@H](CC(C)C)NC(=O)[C@H]([C@@H](C)O)NC(=O)[C@@](C)(NC(=O)[C@H](C)NC(=O)[C@H](CC(=O)O)NC(=O)[C@@H](NC(=O)[C@H](Cc2ccccc2)NC(C)=O)[C@@H](C)CC)CCCC=CCCCC2(CCCC=CCCC[C@](C)(C(=O)N[C@@H](CCCC)C(=O)N[C@@H](C)C(=O)N[C@@H](CC(C)C)C(N)=O)NC(=O)[C@H]([C@@H](C)CC)NC(=O)[C@H](C(C)C)NC(=O)[C@H](CO)NC2=O)NC1=O (some centres unmarked) [SP-214]	> 700	+++ (≤25 but <50: +++)	> 30
CC[C@H](C)[C@H](NC(=O)[C@H](Cc1ccccc1)NC(C)=O)C(=O)N[C@H](C(=O)N[C@@H](CCC(=O)O)C(=O)N[C@@H](CCC(=O)O)C(=O)N[C@H](C(=O)N[C@@H](CC(C)C)C(=O)N[C@@H](CCSC)C(=O)N[C@@]1(C)CCCC=CCCC[C@@](C)(C(=O)N[C@@H](CCSC)C(=O)N[C@@H](C)C(=O)N[C@@H](CC(C)C)C(N)=O)NC(=O)[C@H]([C@@H](C)CC)NC(=O)[C@H](C(C)C)NC(=O)[C@H](CC(C)C)NC1=O)C(C)C)[C@@H](C)O [SP-231] (Ac-FITEEVLM[S5]LVI[S5]MAL-NH2; staple 9-13)	> 700	+ (<10: +)	> 30
CC[C@H](C)[C@H](NC(=O)[C@H](Cc1ccccc1)NC(C)=O)C(=O)N[C@@H](CC(=O)O)C(=O)N[C@@H](CCC(=O)O)C(=O)N[C@@H](CO)C(=O)N[C@H](C(=O)N[C@@H](CC(C)C)C(=O)N[C@@H](CCSC)C(=O)N[C@@]1(C)CCCC=CCCC[C@@](C)(C(=O)N[C@@H](CCSC)C(=O)N[C@@H](C)C(=O)N[C@@H](CC(C)C)C(N)=O)NC(=O)[C@H]([C@@H](C)CC)NC(=O)[C@H](C(C)C)NC(=O)[C@H](CC(C)C)NC1=O)C(C)C [SP-238] (Ac-FIDESVLM[S5]LVI[S5]MAL-NH2; staple 9-13)	400 to 700	++ (≤10 but <25: ++)	> 30
CCCC[C@H](NC(=O)[C@H](CCC(=O)O)NC(=O)[C@@H](NC(=O)[C@@H](NC(=O)[C@H](CC(C)C)NC(=O)[C@]1(C)CCCC=CCCC[C@](C)(NC(=O)[C@H](CCC(=O)O)NC(=O)[C@H](CC(=O)O)NC(=O)[C@@H](NC(=O)[C@H](Cc2ccccc2)NC(C)=O)[C@@H](C)CC)C(=O)N[C@@H](C(C)C)C(=O)N[C@@H](CC(C)C)C(=O)N[C@@H](CCCC)C(=O)N1)C(C)C)[C@@H](C)CC)C(=O)NCC(=O)N[C@@H](CC(C)C)C(=O)N[C@@H](CC(=O)O)C(=O)N[C@@H](CCCNC(=N)N)C(=O)N[C@H](C(=O)N[C@@H](CCCCN)C(=O)N[C@@H](CCC(=O)O)C(=O)N[C@@H](CC(C)C)C(=O)N1CCC[C@H]1C(=O)N[C@@H](CCC(=O)O)C(=O)N[C@@H](CC(C)C)C(=O)N[C@@H](Cc1c[nH]c2ccccc12)C(=O)N[C@@H](CC(C)C)C(N)=O)[C@@H](C)CC [SP-105] (Ac-FIDE[S5]VL[Nle][S5]LVIE[Nle]GLDRIKELPELWL-NH2; staple 5-9)	≤ 200	–	> 30
CCCC[C@H](NC(=O)[C@]1(C)CCCC=CCCC[C@](C)(NC(=O)[C@H](CCCC)NC(=O)[C@H](CC(C)C)NC(=O)[C@@H](NC(=O)[C@H](C)NC(=O)[C@H](C)NC(=O)[C@H](C)NC(=O)[C@@H](NC(=O)[C@H](CC(N)=O)NC(=O)[C@@H](NC(=O)[C@]2(C)CCCC=CCCCCCC[C@@](C)(NC(=O)[C@H](C)NC(=O)CNC(=O)[C@H](CCC(N)=O)NC(=O)[C@H](CC(C)C)NC(=O)[C@H](CC(C)C)NC(C)=O)C(=O)N[C@@H](CC(C)C)C(=O)N[C@@H](CC(C)C)C(=O)N[C@@H](CCCNC(=N)N)C(=O)N[C@@H](C)C(=O)N[C@@H](CC(C)C)C(=O)N[C@@H](C)C(=O)N2)C(C)C)[C@@H](C)CC)C(C)C)C(=O)N[C@@H](CC(C)C)C(=O)N[C@@H](C(C)C)C(=O)N[C@@H]([C@@H](C)CC)C(=O)N1)C(N)=O [SP-348] (Ac-LLQGA[R8]LLRALA[S5]VNIAAAVL[Nle][S5]LVI[S5][Nle]-NH2; staple 6-13, 23-27)	> 700	–	–
CCCC[C@H](NC(=O)[C@H](CCC(=O)O)NC(=O)[C@@H](NC(=O)[C@@H](NC(=O)[C@H](CC(N)=O)NC(=O)[C@]1(C)CCCC=CCCC[C@](C)(NC(=O)[C@H](C)NC(=O)[C@H](CC(=O)O)NC(=O)[C@@H](NC(=O)[C@H](Cc2ccccc2)NC(C)=O)[C@@H](C)CC)C(=O)N[C@@H](C(C)C)C(=O)N[C@@H](CC(C)C)C(=O)N[C@@H](CCCC)C(=O)N1)C(C)C)[C@@H](C)CC)C(=O)N[C@@H](C)C(=O)N[C@@H](CC(C)C)C(N)=O [SP-150] (Ac-FIDA[S5]VL[Nle][S5]NVIE[Nle]AL-NH2; staple 5-9)	200 to 400	–	–
CCCC[C@H](NC(=O)[C@H](CCC(=O)O)NC(=O)[C@@H](NC(=O)[C@@H](NC(=O)[C@H](CC(C)C)NC(=O)[C@]1(C)CCCC=CCCC[C@](C)(NC(=O)[C@H](CCC(=O)O)NC(=O)[C@H](CC(=O)O)NC(=O)[C@@H](NC(=O)[C@H](Cc2ccccc2)NC(=O)[C@H](CCCCN)NC(C)=O)[C@@H](C)CC)C(=O)N[C@@H](C(C)C)C(=O)N[C@@H](CC(C)C)C(=O)N[C@@H](CCCC)C(=O)N1)C(C)C)[C@@H](C)CC)C(=O)N[C@@H](C)C(=O)N[C@@H](CC(C)C)C(=O)N[C@@H](CCCCN)C(N)=O [SP-136] (Ac-KFIDE[S5]VL[Nle][S5]LVIE[Nle]ALK-NH2; staple 6-10)	> 700	–	–
CC[C@H](C)[C@H](NC(=O)[C@H](Cc1ccccc1)NC(C)=O)C(=O)N[C@@H](CC(=O)O)C(=O)N[C@@H](CCC(=O)O)C(=O)N[C@]1(C)CCCCCCC=CCCC[C@@](C)(C(=O)N[C@@H](CCC(=O)O)C(=O)N[C@@H](CCSC)C(=O)N[C@@H](C)C(=O)N[C@@H](C)C(N)=O)NC(=O)[C@H](C(C)C)NC(=O)[C@H](CC(C)C)NC(=O)[C@H](CO)NC(=O)[C@H](CCSC)NC(=O)[C@H](CC(C)C)NC(=O)[C@H](C(C)C)NC1=O [SP-178] (Ac-FIDE[R8]VLMSLV[S5]EMAA-NH2; staple 5-12)	> 700	–	–
CCCC[C@H](NC(=O)[C@H](CCC(=O)O)NC(=O)[C@@H](NC(=O)[C@@H](NC(=O)[C@H](CC(C)C)NC(=O)[C@]1(C)CCCC=CCCC[C@](C)(NC(=O)[C@H](CCC(=O)O)NC(=O)[C@H](CC(=O)O)NC(=O)[C@@H](NC(=O)[C@H](Cc2ccccc2)NC(=O)[C@H](CCCCN)NC(=O)[C@H](CCCCN)NC(C)=O)[C@@H](C)CC)C(=O)N[C@@H](C(C)C)C(=O)N[C@@H](CC(C)C)C(=O)N[C@@H](CCCC)C(=O)N1)C(C)C)[C@@H](C)CC)C(=O)N[C@@H](C)C(=O)N[C@@H](CC(C)C)C(=O)N[C@@H](CCCCN)C(=O)N[C@@H](CCCCN)C(N)=O [SP-137] (Ac-KKFIDE[S5]VL[Nle][S5]LVIE[Nle]ALKK-NH2; staple 7-11)	> 700	–	–
CCCC[C@@H]1NC(=O)[C@](C)(NC(=O)[C@@H](NC(=O)[C@H](CCC(=O)O)NC(=O)[C@H](CCC(=O)O)NC(=O)[C@H](CC(=O)O)NC(=O)[C@@H](NC(=O)[C@H](CC(N)=O)NC(=O)[C@@H](NC(=O)[C@H](CCC(N)=O)NC(=O)[C@]2(C)CCCC=CCCC[C@](C)(NC(=O)[C@H](CC(C)C)NC(=O)[C@H](CCC(=O)O)NC(=O)[C@H](CCC(=O)O)NC(=O)CNC(=O)[C@H](CCC(N)=O)NC(=O)[C@H](CC(C)C)NC(=O)[C@H](CC(C)C)NC(C)=O)C(=O)N[C@@H](CCCNC(=N)N)C(=O)N[C@@H](C)C(=O)N[C@@H](CC(C)C)C(=O)N2)C(C)C)[C@@H](C)CC)C(C)C)CCCCCCC=CCCC[C@@](C)(C(=O)NCC(N)=O)NC(=O)[C@H](CCC(=O)O)NC(=O)[C@H]([C@@H](C)CC)NC(=O)[C@H](C(C)C)NC(=O)[C@H](CC(C)C)NC(=O)[C@H](CO)NC1=O [SP-316] (Ac-LLQGEEL[S5]RAL[S5]QVNIDEEV[R8][Nle]SLVIE[S5]G-NH2; staple 8-12, 21-28)	> 700	–	–
